Among the data in ChEMBL document CHEMBL1136613, “2-(3,4-Dihydro-1H-isoquinolin-2yl)-pyridines as a novel class of NR1/2B subtype selective NMDA receptor antagonists” (Bioorg Med Chem Lett, 2003) are Ki, pKa and ED50 values, retold here.

Molecules are shown by their SMILES. Several values for one entry are separate records, joined by “and”; a condition that tells them apart may be missing. Equal values may be shown once.

The term Ki denotes a measure of affinity in units of concentration, obtained from inhibition or displacement. Read a low Ki as higher affinity. What is called pKa is the pH at which an ionisable group is half protonated. The term ED50 denotes the dose at which the effect has come halfway, by size or by number of responders. The low end stands for an effect at a small dose, the high end for a need for a large dose.

Data set [1] addresses T1, Muscarinic acetylcholine receptor M1 (Homo sapiens, UniProt P11229).
T1 sequence (P11229 whole entry): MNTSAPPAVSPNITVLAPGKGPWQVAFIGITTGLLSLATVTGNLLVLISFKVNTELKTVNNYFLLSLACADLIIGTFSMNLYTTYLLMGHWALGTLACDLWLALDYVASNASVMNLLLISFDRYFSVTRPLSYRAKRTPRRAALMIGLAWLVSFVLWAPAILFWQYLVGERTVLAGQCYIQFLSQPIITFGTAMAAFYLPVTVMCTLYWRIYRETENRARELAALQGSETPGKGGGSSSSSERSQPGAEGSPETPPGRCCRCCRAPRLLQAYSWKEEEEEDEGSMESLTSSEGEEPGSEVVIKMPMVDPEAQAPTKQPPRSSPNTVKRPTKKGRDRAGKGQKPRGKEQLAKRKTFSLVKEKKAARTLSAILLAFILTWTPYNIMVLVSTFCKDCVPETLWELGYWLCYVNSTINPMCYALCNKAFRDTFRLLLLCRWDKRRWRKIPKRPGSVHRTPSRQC
Description: Displacement of [3H]pirenzepine from M1 receptor

In data set [2] the target is Glutamate [NMDA] receptor.
Description: Binding affinity against NMDA receptor by displacement of [3H]Ro-256981
The target in data set [3] is T2, Adrenergic receptor alpha-1 (Homo sapiens, UniProt P35348+P25100+P35368).
T2 sequence (P35348 whole entry): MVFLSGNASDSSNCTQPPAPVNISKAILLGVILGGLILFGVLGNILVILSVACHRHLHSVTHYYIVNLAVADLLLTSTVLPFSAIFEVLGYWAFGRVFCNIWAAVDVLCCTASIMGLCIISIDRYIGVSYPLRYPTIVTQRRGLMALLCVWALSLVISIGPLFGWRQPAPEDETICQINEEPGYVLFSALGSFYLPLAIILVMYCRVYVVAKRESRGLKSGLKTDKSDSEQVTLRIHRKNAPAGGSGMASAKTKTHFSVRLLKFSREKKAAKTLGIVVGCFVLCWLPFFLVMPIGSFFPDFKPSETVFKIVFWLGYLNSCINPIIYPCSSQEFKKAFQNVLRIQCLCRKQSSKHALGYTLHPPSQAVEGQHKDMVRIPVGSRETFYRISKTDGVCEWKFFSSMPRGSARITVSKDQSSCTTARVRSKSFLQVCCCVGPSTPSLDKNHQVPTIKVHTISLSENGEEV
T2 sequence (P25100 whole entry): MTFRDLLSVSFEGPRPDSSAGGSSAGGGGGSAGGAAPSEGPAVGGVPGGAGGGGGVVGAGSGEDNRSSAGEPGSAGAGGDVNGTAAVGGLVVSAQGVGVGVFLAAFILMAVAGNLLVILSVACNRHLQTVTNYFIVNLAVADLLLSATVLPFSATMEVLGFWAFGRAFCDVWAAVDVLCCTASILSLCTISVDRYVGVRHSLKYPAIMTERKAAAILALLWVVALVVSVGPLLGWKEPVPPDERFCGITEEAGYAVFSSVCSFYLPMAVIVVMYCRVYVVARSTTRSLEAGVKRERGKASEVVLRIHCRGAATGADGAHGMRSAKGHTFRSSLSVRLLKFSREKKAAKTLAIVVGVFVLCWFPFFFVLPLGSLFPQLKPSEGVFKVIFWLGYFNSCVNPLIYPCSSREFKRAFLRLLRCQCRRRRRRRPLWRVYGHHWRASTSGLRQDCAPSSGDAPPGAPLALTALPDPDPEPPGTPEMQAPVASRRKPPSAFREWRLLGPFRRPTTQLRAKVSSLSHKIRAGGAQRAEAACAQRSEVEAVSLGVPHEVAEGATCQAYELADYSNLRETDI
T2 sequence (P35368 whole entry): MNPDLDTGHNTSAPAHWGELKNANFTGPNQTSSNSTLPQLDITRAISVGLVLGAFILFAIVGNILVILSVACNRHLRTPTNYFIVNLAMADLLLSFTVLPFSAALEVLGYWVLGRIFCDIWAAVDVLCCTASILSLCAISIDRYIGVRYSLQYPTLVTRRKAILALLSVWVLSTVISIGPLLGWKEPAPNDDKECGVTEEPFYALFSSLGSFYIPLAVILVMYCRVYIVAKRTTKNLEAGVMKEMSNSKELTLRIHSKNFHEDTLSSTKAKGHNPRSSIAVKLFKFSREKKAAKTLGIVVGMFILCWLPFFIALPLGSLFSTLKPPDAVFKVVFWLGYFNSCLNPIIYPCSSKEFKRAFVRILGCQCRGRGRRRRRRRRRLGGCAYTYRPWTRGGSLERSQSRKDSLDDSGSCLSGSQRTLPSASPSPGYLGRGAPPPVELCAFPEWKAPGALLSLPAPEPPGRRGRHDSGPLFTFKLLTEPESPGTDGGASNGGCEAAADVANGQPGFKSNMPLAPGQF
The data set can be described thus: Displacement of [3H]prazosin from Alpha-1 adrenergic receptor. In kind it is protein assay. (Displacement assays read how much labelled ligand stays bound in the presence of the test substance.)

Data set [4] deals with Mus musculus. The data set can be described thus: In vivo activity was measured in mice after ip administration using standard sound-induced seizures assay. In kind it is functional.
For data set [5], the system named is Mus musculus. As to the kind of experiment: In vivo activity was measured i mice after ip administration using standard sound-induced seizures assay. In kind it is functional.

Description for physchem: Dissociation constant (pKa)

For `CNc1ccnc(N2CCc3ccccc3C2)c1`, the Ki in data set [1] was 1200 nM; in data set [2], 8 nM and 19 nM. In addition, the pKa in the data set “physchem” was found to be 8.8.
For `Cc1cc(N)cc(N2CCc3ccccc3C2)n1`, the Ki in data set [1] is 2600 nM; in data set [3], 730 nM; in data set [2], 5 nM. In addition, in the data set “physchem”, the pKa was 9.
`CCc1cc(N)cc(N2CCc3ccccc3C2)n1`: the Ki in data set [1] came out at 2500 nM; in data set [3], 670 nM; in data set [2] it was 3 nM. In addition, the pKa in the data set “physchem” was determined as 9.
Turning to `Nc1ccnc(N2CCc3ccccc3C2)c1`, the results for the Ki in data set [1], in data set [3] and in data set [2] were 1900 nM, 1200 nM and 3 nM, respectively. For the same molecule, the ED50 in the data set with Mus musculus [4] was determined as 7 mg/kg. Besides, the pKa in “physchem” was 8.5.
With `CN(C)c1ccnc(N2CCc3ccccc3C2)c1`, the Ki was found to be 150 nM in data set [1], 490 nM in data set [3] and 8 nM in data set [2]. In the data set “physchem”, this molecule yielded a pKa of 8.8.
With `Cc1ccnc(N2CCc3ccccc3C2)c1`, the pKa in the data set “physchem” amounted to 6.6. The Ki in data set [2] was 380 nM.
Regarding `c1ccc(N2CCc3ccccc3C2)nc1`, the pKa in the data set “physchem” was found to be 6.4. The molecule further came in with a Ki in data set [2] of 750 nM.
In turn, `Cc1cc(N)nc(N2CCc3ccccc3C2)c1` gave a pKa in the data set “physchem” of 6.5. In data set [2], this molecule returned a Ki of 110 nM.
In the case of `Brc1ccc(N2CCc3ccccc3C2)nc1`, the pKa in the data set “physchem” amounted to 3. This molecule yielded a Ki in data set [2] of 7500 nM.
For the molecule `Cc1cnc(N2CCc3ccccc3C2)cc1NCCO`, the Ki in data set [1] stood at 6500 nM; in data set [3] it was 3200 nM; in data set [2], 8 nM. In “physchem”, the pKa was 9.
In the case of `CC(=O)Nc1ccnc(N2CCc3ccccc3C2)c1`, the pKa in the data set “physchem” came out at 6.5. The same molecule registered a Ki in data set [2] of 380 nM.
As to `Nc1cccc(N2CCc3ccccc3C2)n1`, the pKa in “physchem” was found to be 6. This molecule also showed a Ki in data set [2] of 190 nM.
In the case of `Cc1ccc(N2CCc3ccccc3C2)nc1`, the pKa in “physchem” was 6.5.
For the molecule `Nc1cc(N2CCc3ccccc3C2)nc2c1CCC2`, the Ki was found to be 510 nM in data set [1], 730 nM in data set [3] and 9 nM in data set [2]. The molecule further displayed a pKa in “physchem” of 9.4.
Turning to `Cc1cnc(N2CCc3ccccc3C2)cc1N`, the results for the Ki in data set [1], in data set [3] and in data set [2] were 870 nM, 1000 nM and 4 nM, respectively. The molecule further showed a pKa in “physchem” of 8.7.
Regarding `Brc1cccc(N2CCc3ccccc3C2)n1`, the pKa in “physchem” came to 2. In data set [2], this molecule registered a Ki of 15000 nM.
Molecule `CCOC(=O)C(=O)Nc1cc(C)nc(N2CCc3ccccc3C2)c1` yielded a pKa in “physchem” of 6.5. The Ki in data set [2] is 260 nM.
Turning to `Cc1cc(NCCO)cc(N2CCc3ccccc3C2)n1`, the Ki in data set [1] worked out at 3800 nM; in data set [3], 3300 nM; in data set [2], 4 nM. Besides, the pKa in the data set “physchem” worked out at 9.2.
For `OCCNc1ccnc(N2CCc3ccccc3C2)c1`, the values for the Ki in data set [1], in data set [3] and in data set [2] were 6100 nM, 2300 nM and 2 nM, respectively. This molecule also registered an ED50 in the data set with Mus musculus [4] of 13 mg/kg. The same molecule had a pKa in “physchem” of 8.9.
`c1ccc(CNc2ccnc(N3CCc4ccccc4C3)c2)cc1` showed a pKa in “physchem” of 8.6. In data set [2], this molecule displayed a Ki of 150 nM.
Consider `Nc1cccnc1N1CCc2ccccc2C1`, for which the pKa in “physchem” was 5. The molecule also yielded an inhibitory constant (Ki) in data set [2] of 380 nM.
For `Nc1ccc(N2CCc3ccccc3C2)nc1`, in that order: 5.8 and 1100 nM.
As for `Nc1cc(CO)nc(N2CCc3ccccc3C2)c1`, the Ki in data set [1] was 1100 nM; in data set [3], 1700 nM; in data set [2], 4 nM. For the same molecule, the pKa in the data set “physchem” stood at 8.1.
Molecule `OCCNc1cc(N2CCc3ccccc3C2)nc2ccccc12` gave an ED50 in the data set on Mus musculus [5] of less than 12 mg/kg. Also, in data set [2], the Ki turned out to be 3.5 nM.
In the data set with Mus musculus [4], `C[C@@H](CN1CCC(Cc2ccccc2)CC1)[C@@H](O)c1ccc(O)cc1` (single isomer, unassigned) had an ED50 of 13 mg/kg. Further, in data set [2], the Ki is 6 nM.
As for `C[C@@H]([C@@H](O)c1ccc(O)cc1)N1CCC(O)(c2ccccc2)CC1` [TRAXOPRODIL], in the data set on Mus musculus [4], the ED50 was 13 mg/kg.
